From patent publication US20240400579A1, “SPIROCYCLIC MODULATORS OF CHOLESTEROL BIOSYNTHESIS AND THEIR USE FOR PROMOTING REMYELINATION” (GENENTECH, INC., priority 2021, published 2024)
Where two headings read alike, the source gives them in different places. Each block holds one compound with its values, some of them ahead of it.

Legend:
[1] = tested on: EpiSC-derived OPCs; test: In vitro phenotypic screening of OPCs, MBP high-content imaging; assay type: cell-based, mouse; details: percentage of MBP+ oligodendrocytes, 3 days, 0.5 nM to 1000 nM, read-out: mOPC EC50
Procedure: (§1) To assess effects of treatments on OPCs, all treatments were assayed in two or more independent platings of epiblast stem cell-derived OPCs (EpiSC). EpiSC-derived OPCs were obtained using in vitro differentiation protocols and culture conditions described previously (Najm et al, 2011, Nature Methods). OPCs were expanded and frozen down in aliquots. OPCs were thawed into growth conditions for at least one passage before use in further assays.
EpiSC-derived OPCs were grown and expanded in poly-L-ornithine (PO) and laminin-coated flasks in N2B27 media (DMEM/F12 (Gibco), N2-MAX (R&D Systems), B-27 (ThermoFisher), and GlutaMax (Gibco)) supplemented with FGF2 ([…], R&D systems, 233-FB-025) and PDGF-AA ([…], R&D systems, 233-AA-050) before harvesting for experiments. The cells were seeded onto poly-L-ornithine or poly-D-lysine coated CellCarrier Ultra plates (PerkinElmer) coated with laminin (Sigma, L2020) at a density of 150,000/cm^2 in N2B27 media without growth factors. For dose-response testing, a 1000× compound stock in dimethyl sulphoxide (DMSO) was added to assay plates, resulting in 8-point dose curves with final concentrations between 1000 nM and 0.5 nM. Positive controls and DMSO vehicle controls were included in each assay plate. Cells were incubated under standard conditions (37° C., 5% CO2) for 3 days and fixed with 4% paraformaldehyde (PFA) in phosphate buffered saline (PBS) for 20 min. Fixed plates were washed with PBS, permeabilized with 0.1% Triton X-100, and blocked with 10% donkey serum (v/v) in PBS for 40 min. Then, cells were labelled with MBP antibodies (Abcam, ab7349; 1:200) for 2 h at room temperature, washed with PBS, and stained with Alexa Fluor conjugated secondary antibodies (1:500) for 45 min. Nuclei were visualized by DAPI staining (Sigma; 1 μg/ml), followed by further PBS washes.
Cells and cell culture plates were imaged on the Operetta High Content Imaging and Analysis system (PerkinElmer). Analysis (PerkinElmer Harmony and Columbus software) began by identifying intact nuclei stained by DAPI. The peri-nuclear region of each cell was then cross-referenced with the mature myelin protein (MBP) stain to identify oligodendrocyte nuclei, and from this the percentage of oligodendrocytes was calculated. EC50 values were calculated using The Levenberg-Marquardt algorithm to fit a Hill equation to dose-response data (0.5 nM to 1000 nM).

[2] = target: human emopamil binding protein and human 7-dehydrocholesterol reductase co-expressing cell membrane (Homo sapiens (Human), UniProt Q15125); test: hEBP-DHCR7 radioligand filtration binding assay with [3H]-Compound 118A*; details: radioligand [3H]-Compound 118A*; HEK293 membrane co-expressing hEBP and DHCR7
Chain of human emopamil binding protein and human 7-dehydrocholesterol reductase co-expressing cell membrane (Q15125 whole entry): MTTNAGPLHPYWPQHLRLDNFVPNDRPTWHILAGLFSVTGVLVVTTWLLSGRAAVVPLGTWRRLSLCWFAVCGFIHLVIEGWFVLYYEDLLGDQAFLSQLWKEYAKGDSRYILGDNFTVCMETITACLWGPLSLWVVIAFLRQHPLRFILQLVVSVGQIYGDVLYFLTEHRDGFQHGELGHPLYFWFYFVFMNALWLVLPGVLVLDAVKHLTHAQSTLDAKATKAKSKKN
Procedure: Membrane Preparation: human emopamil binding protein and human 7-dehydrocholesterol reductase co-expressing cells were generated by transient transfecting host human embryonic kidney (HEK) 293 cells with 2 DNA constructs containing each protein's coding sequence. Cells were suspension cultured at 37° C. with 5% CO2 in […] 293 Expression Medium (Thermofisher). Whole cell membrane was prepared by harvesting the cell pellet, adding cold membrane buffer (50 mM Tris, pH7.5, 1× Roche COMPLETE EDTA-free protease inhibitor cocktail) 10 times volume of the cell pellets weight, lysing cell pellet on ice by using Dounce homogenizer, spinning at 200 g 4° C. for 15 min, collecting supernatant and spinning again at 25000 g 4° C. for 50 min, transferring pellet to Dounce homogenizer, re-suspending pellet by homogenizing in membrane buffer on ice to reach ˜25 mg/mL, then keeping whole cell membrane aliquots at −80° C.
Compounds were prepared in a 96-well U bottom plate using an Echo550 machine and 10 mM compound DMSO stock solution, followed by an 8-dose 5-fold serial dilutions protocol with final testing compound concentration ranging from 0.06 to 5000 nM, with DMSO back fill to 100 nL/well and n=2. […] The UniFilter-96 GF/B plates were pre-treated by adding 50 μl/well of 0.3% (v/v) PEI to UniFilter-96 GF/B plates. The plates were sealed and incubated at 4° C. for 3 hrs. Then, the plates were washed with ice-cold assay buffer 3 times. The radioligand binding assay was prepared by adding assay buffer diluted hEBP-DHCR7 membrane at 66.7 μg/ml x 150 μl/well into the 96-well compound plate to reach 10 μg membrane per well. Then, the assay buffer diluted [3H]-Compound 118A* was added at 25 nM×50 μl/well. Following this, the plate was centrifuged at 1000 rpm for 30 secs. The plate was then sealed and agitated at 600 rpm at 22° C. for 5 min, and then incubated at 22° C. for 3 hrs. The incubation was stopped by transferring the binding solution to the pre-treated UniFilter-96 GF/B plate, vacuum filtrated, and then washed four times with ice-cold assay buffer. Following this, the plates were dried at 37° C. for 45 min. The plates were then sealed at the bottom. 40 μl/well of scintillation cocktail was added to the plates. A MicroBeta2 microplate counter was then used to read the plate and analyze the data. For reference and test compounds, the results are expressed as % Inhibition, using the normalization equation: N=100-100×(U−C2)/(C1−C2), where U is the unknown value, C1 is the average of high controls, and C2 is the average value of low controls. The IC50 was determined by fitting percentage of inhibition as a function of compound concentrations with Hill equation using XLfit. Results are expressed as hEBP-DHCR7 Ki (uM) in Table 4. Ki was calculated as described above.

[3] = tested on: zymostenol accumulation in EpiSC-derived OPCs (EBP); test: GC/MS-based sterol profiling, zymostenol accumulation; assay type: cell-based, mouse; details: 8 doses from 0.15 nM to 333 nM, read-out: mZymo GCMS EC50
Procedure: as §1
Sterols were monitored using a modified Folch wash protocol (Hubler et al, 2018, Nature). EpiSC-derived OPCs were plated at 100,000 cells per well in PO— and laminin-coated 96-well plates in N2B27 media without growth factors. After 24 hours, cells were rinsed with saline and plates were frozen. Cholesterol-d7 standard was then added to each well before drying under nitrogen stream and derivatization with 55 μl of bis(trimethylsilyl) trifluoroacetamide. After derivatization, 2 μl were analyzed by gas chromatography/mass spectrometry using an Agilent 5973 Network Mass Selective Detector equipped with a 6890 gas chromatograph system and a HP-5MS capillary column (30 m x 0.25 mm×[…]). Samples were analyzed in full scan mode using electron impact ionization; ion fragment peaks were integrated to calculate sterol abundance, and quantitation was relative to cholesterol-d7. The following ion fragments were used to quantitate each metabolite: cholesterol-d7 (465), FF-Mas (482), cholesterol (368), zymostenol (458), zymosterol (456), Desmosterol (456, 343), 7-dehydrocholesterol (456, 325), lanosterol (393), lathosterol (458), 14-dehydrozymostenol (456, 351). […] All standards were obtained from Avanti Polar Lipids unless otherwise indicated. Calibration curves were generated by injecting varying concentrations of sterol standards and maintaining a fixed amount of cholesterol-D7. For normalized zymostenol accumulation results, the total amount of zymostenol measured after drug treatment was divided by the total amount of zymostenol accumulated after 24 hr treatment with 100 nM positive control reference.

Compound: C[C@@H](Cc1ccc(C(F)(F)F)cn1)CN1CCC2(C1)CS(=O)(=O)C2 (single isomer, unassigned) [121A*]
EC50 ([1]; Mus musculus, 72 h): 23 nM | Ki [2]: 115 nM | EC50 ([3]; Mus musculus, 24 h): 6.1 nM

Compound: C[C@H](Cc1ccc(C(F)(F)F)cn1)CN1CCC2(C1)CS(=O)(=O)C2 (single isomer, unassigned) [121B*]
EC50 ([1]; Mus musculus, 72 h): 260 nM | Ki [2]: 140 nM | EC50 ([3]; Mus musculus, 24 h): 150 nM

Compound: C[C@@H](Cc1ccc(C(F)(F)F)nc1)CN1CC2(CCS(=O)(=O)CC2)C1 (single isomer, unassigned) [234B*]
EC50 ([1]; Mus musculus, 72 h): 210 nM | Ki [2]: 193 nM | EC50 ([3]; Mus musculus, 24 h): 35 nM

Compound: CC(C)n1nc(C(F)(F)F)cc1C[C@@H](C)CN1CCC2(C1)CS(=O)(=O)C2 (single isomer, unassigned) [235A*]
EC50 ([1]; Mus musculus, 72 h): 19.9 nM | Ki [2]: 19.7 nM | EC50 ([3]; Mus musculus, 24 h): 6.1 nM

Compound: O=S1(=O)CC2(CCN(CC[C@H](F)c3ccc(C(F)(F)F)nc3)CC2)C1 (single isomer, unassigned) [237A*]
EC50 ([1]; Mus musculus, 72 h): 26.9 nM | Ki [2]: 89.6 nM | EC50 ([3]; Mus musculus, 24 h): 30.1 nM

Compound: O=S1(=O)CC2(CCN(CC[C@@H](F)c3ccc(C(F)(F)F)nc3)CC2)C1 (single isomer, unassigned) [237B*]
EC50 ([1]; Mus musculus, 72 h): 69.1 nM | Ki [2]: 117 nM | EC50 ([3]; Mus musculus, 24 h): 17 nM

Compound: CC(C)(Cc1ccc(C(F)(F)F)nc1)CN1CC[C@]2(CCS(=O)(=O)C2)C1 (single isomer, unassigned) [Compound 148A]
EC50 ([1]; Mus musculus, 72 h): 31 nM | Ki [2]: 23.6 nM | EC50 ([3]; Mus musculus, 24 h): 4.9 nM

Compound: C[C@H](Cc1ccc(C(F)(F)F)nc1)CN1CCC2(CC1)CS(=O)(=O)C2 (single isomer, unassigned) [Compound 217]
EC50 ([1]; Mus musculus, 72 h): 26 nM | Ki [2]: 39.6 nM | EC50 ([3]; Mus musculus, 24 h): 8.3 nM

Compound: C[C@@H](Cc1ccc(C(F)(F)F)nc1)CN1CCC2(CC1)CS(=O)(=O)C2 (single isomer, unassigned) [Example 203*]
EC50 ([1]; Mus musculus, 72 h): 22 nM | Ki [2]: 51.9 nM | EC50 ([3]; Mus musculus, 24 h): 6.4 nM

Compound: C[C@H](CN1CCC2(CC1)CS(=O)(=O)C2)Oc1ccc(C(F)(F)F)nc1 (single isomer, unassigned) [Example 207B*]
EC50 ([1]; Mus musculus, 72 h): 63 nM | Ki [2]: 65.3 nM | EC50 ([3]; Mus musculus, 24 h): 9.8 nM

The next compounds have a lower Ki [2] than those just listed; values first:

EC50 ([1]; Mus musculus, 72 h): 0.72 nM | Ki [2]: 7.27 nM | EC50 ([3]; Mus musculus, 24 h): 0.52 nM
Compound: C[C@@H](Cc1ccc(OC(F)(F)F)cc1)CN1CCC2(C1)CS(=O)(=O)C2 (single isomer, unassigned) [119A*]

EC50 ([1]; Mus musculus, 72 h): 2.2 nM | Ki [2]: 10.5 nM | EC50 ([3]; Mus musculus, 24 h): 4 nM
Compound: C[C@H](Cc1ccc(OC(F)(F)F)cc1)CN1CCC2(C1)CS(=O)(=O)C2 (single isomer, unassigned) [119B*]

EC50 ([1]; Mus musculus, 72 h): 4.7 nM | Ki [2]: 15.6 nM | EC50 ([3]; Mus musculus, 24 h): 2.36 nM
Compound: CC(Cc1ccc(F)c(F)c1)CN1CCC2(CC1)CS(=O)(=O)C2 (single isomer, unassigned) [212A*, 7-(3-(3,4-Difluorophenyl)-2-methylpropyl)-2-thia-7-azaspiro[3.5]nonane 2,2-dioxide]

EC50 [1]: 4 nM | Ki [2]: 10.1 nM | EC50 ([3]; 24 hours): 2.1 nM
Compound: CC(Cc1ccc(F)c(F)c1)CN1CCC2(CC1)CS(=O)(=O)C2 (single isomer, unassigned) [212B*, 7-(3-(3,4-Difluorophenyl)-2-methylpropyl)-2-thia-7-azaspiro[3.5]nonane 2,2-dioxide]

EC50 ([1]; Mus musculus, 72 h): 1.4 nM | Ki [2]: 9.98 nM | EC50 ([3]; Mus musculus, 24 h): 0.95 nM
Compound: C[C@@H](Cc1ccc(C(F)(F)F)cc1)CN1CCC2(CC1)CS(=O)(=O)C2 (single isomer, unassigned) [216A*]

EC50 ([1]; Mus musculus, 72 h): 3.3 nM | Ki [2]: 15.6 nM | EC50 ([3]; Mus musculus, 24 h): 0.99 nM
Compound: C[C@H](Cc1ccc(C(F)(F)F)cc1)CN1CCC2(CC1)CS(=O)(=O)C2 (single isomer, unassigned) [216B*]

EC50 [1]: 13 nM | Ki [2]: 10.6 nM | EC50 ([3]; 24 hours): 4.6 nM
Compound: C[C@H](CN1CCC2(CC1)CS(=O)(=O)C2)Oc1ccc(F)c(F)c1 (single isomer, unassigned) [221B*]

EC50 ([1]; Mus musculus, 72 h): 7.6 nM | Ki [2]: 15.3 nM | EC50 ([3]; Mus musculus, 24 h): 3.2 nM
Compound: C[C@@H](CN1CCC2(CC1)CS(=O)(=O)C2)Oc1ccc(C(F)(F)F)cc1 (single isomer, unassigned) [227A*]

EC50 ([1]; Mus musculus, 72 h): 2.4 nM | Ki [2]: 9.8 nM | EC50 ([3]; Mus musculus, 24 h): 2.1 nM
Compound: C[C@H](CN1CCC2(CC1)CS(=O)(=O)C2)Oc1ccc(C(F)(F)F)cc1 (single isomer, unassigned) [227B*]

EC50 ([1]; Mus musculus, 72 h): 5.6 nM | Ki [2]: 13.9 nM | EC50 ([3]; Mus musculus, 24 h): 2 nM
Compound: C[C@H](Cc1ccc(C(F)(F)F)cc1)CN1CC2(CCS(=O)(=O)CC2)C1 (single isomer, unassigned) [232A*]

EC50 ([1]; Mus musculus, 72 h): 15 nM | Ki [2]: 12.7 nM | EC50 ([3]; Mus musculus, 24 h): 5.7 nM
Compound: C[C@@H](Cc1ccc(C(F)(F)F)cc1)CN1CC2(CCS(=O)(=O)CC2)C1 (single isomer, unassigned) [232B*]

EC50 ([1]; Mus musculus, 72 h): 3.89 nM | Ki [2]: 17.1 nM | EC50 ([3]; Mus musculus, 24 h): 2.6 nM
Compound: CC(C)n1nc(C(F)(F)F)cc1C[C@H](C)CN1CCC2(C1)CS(=O)(=O)C2 (single isomer, unassigned) [235B*]

EC50 ([1]; Mus musculus, 72 h): 10 nM | Ki [2]: 15.6 nM | EC50 ([3]; Mus musculus, 24 h): 1.5 nM
Compound: O=S1(=O)CC2(CCN(CC[C@@H](F)c3ccc(C(F)(F)F)cc3)C2)C1 (single isomer, unassigned) [Compound 122A]
